Key:
[1] = target: Histamine H2 receptor (Homo sapiens) (UniProt P25021); test: H2 (h) Eurofins-Cerep Cellular and Nuclear Receptor Functional Assays; conditions: Compound concentration 10.0 uM
[2] = target: T1, 5-hydroxytryptamine receptor 1A (Homo sapiens) (UniProt P08908); test: 5-HT1A (h) Eurofins-Cerep Cellular and Nuclear Receptor Functional Assays; conditions: Compound concentration 10.0 uM
T1 sequence (whole entry): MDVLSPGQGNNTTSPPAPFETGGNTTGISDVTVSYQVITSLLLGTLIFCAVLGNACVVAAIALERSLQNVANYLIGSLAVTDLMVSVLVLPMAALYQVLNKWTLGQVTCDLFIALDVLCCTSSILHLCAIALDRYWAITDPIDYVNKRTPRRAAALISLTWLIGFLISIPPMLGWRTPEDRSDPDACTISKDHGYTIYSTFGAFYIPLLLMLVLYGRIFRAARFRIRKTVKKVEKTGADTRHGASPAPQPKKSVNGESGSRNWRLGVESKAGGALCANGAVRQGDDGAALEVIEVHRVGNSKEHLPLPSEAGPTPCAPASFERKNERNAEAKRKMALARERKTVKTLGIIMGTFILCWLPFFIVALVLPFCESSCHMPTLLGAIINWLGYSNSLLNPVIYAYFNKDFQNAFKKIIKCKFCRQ

[3] = target: 5-hydroxytryptamine receptor 6 (Homo sapiens) (UniProt P50406); test: 5-HT6 (h) Eurofins-Cerep Cellular and Nuclear Receptor Functional Assays; conditions: Compound concentration 10.0 uM
Chain of 5-hydroxytryptamine receptor 6 (Homo sapiens) (P50406 whole entry): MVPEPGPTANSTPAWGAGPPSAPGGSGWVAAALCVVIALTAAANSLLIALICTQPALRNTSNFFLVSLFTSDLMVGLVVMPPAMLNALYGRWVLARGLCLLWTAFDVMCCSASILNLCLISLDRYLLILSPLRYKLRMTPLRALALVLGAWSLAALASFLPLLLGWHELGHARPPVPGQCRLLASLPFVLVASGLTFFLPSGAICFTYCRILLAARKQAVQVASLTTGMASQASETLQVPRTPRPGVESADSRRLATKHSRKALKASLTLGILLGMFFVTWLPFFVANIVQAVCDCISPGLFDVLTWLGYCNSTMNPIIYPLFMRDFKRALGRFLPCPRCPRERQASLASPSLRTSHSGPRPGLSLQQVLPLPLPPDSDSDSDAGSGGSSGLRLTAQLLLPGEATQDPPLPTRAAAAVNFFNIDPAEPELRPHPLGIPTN

[4] = target: AP2-associated protein kinase 1 (Homo sapiens) (UniProt Q2M2I8); conditions: Compound concentration 1000.0 nM
[5] = target: Bone morphogenetic protein receptor type-2 (Homo sapiens) (UniProt Q13873); conditions: Compound concentration 1000.0 nM
[6] = target: Mitotic checkpoint serine/threonine-protein kinase BUB1 (Homo sapiens) (UniProt O43683); conditions: Compound concentration 1000.0 nM
[7] = target: Calcium/calmodulin-dependent protein kinase kinase 1 (Homo sapiens) (UniProt Q8N5S9); conditions: Compound concentration 1000.0 nM
[8] = target: Cyclin-dependent kinase 11A (Homo sapiens) (UniProt Q9UQ88); conditions: Compound concentration 1000.0 nM
[9] = target: Dual specificity tyrosine-phosphorylation-regulated kinase 1B (Homo sapiens) (UniProt Q9Y463); conditions: Compound concentration 1000.0 nM
[10] = tested on: Epidermal growth factor receptor (Homo sapiens), P00533 [UNDEFINED MUTATION]; conditions: Compound concentration 1000.0 nM
[11] = target: Ephrin type-B receptor 3 (Homo sapiens) (UniProt P54753); conditions: Compound concentration 1000.0 nM
[12] = target: Serine/threonine-protein kinase/endoribonuclease IRE1 (Homo sapiens) (UniProt O75460); conditions: Compound concentration 1000.0 nM
[13] = target: Tyrosine-protein kinase Fes/Fps (Homo sapiens) (UniProt P07332); conditions: Compound concentration 1000.0 nM
Chain of Tyrosine-protein kinase Fes/Fps (Homo sapiens) (P07332 whole entry): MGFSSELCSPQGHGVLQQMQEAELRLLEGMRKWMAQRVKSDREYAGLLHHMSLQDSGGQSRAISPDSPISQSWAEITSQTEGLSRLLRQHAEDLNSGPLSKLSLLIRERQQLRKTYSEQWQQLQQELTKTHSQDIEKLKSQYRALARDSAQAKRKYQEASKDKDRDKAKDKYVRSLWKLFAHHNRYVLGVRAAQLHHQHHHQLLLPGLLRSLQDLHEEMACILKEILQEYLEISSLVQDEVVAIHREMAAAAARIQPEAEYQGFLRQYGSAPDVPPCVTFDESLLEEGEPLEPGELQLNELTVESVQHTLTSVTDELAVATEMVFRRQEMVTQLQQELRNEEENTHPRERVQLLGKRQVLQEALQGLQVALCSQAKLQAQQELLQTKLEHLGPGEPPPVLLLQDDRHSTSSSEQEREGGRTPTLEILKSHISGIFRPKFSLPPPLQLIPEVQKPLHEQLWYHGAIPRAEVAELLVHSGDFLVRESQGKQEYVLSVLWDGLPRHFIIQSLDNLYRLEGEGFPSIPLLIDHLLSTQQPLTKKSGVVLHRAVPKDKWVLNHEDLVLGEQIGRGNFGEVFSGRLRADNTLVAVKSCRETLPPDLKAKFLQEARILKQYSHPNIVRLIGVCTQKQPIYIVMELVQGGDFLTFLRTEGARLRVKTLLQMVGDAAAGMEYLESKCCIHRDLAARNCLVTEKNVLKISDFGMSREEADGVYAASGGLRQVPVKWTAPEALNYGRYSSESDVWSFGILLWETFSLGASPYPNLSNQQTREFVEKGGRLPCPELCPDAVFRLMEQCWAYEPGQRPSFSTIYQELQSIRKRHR

[14] = tested on: Receptor-type tyrosine-protein kinase FLT3 (Homo sapiens), P36888 [UNDEFINED MUTATION]; conditions: Compound concentration 1000.0 nM
[15] = target: Beta-adrenergic receptor kinase 1 (Homo sapiens) (UniProt P25098); conditions: Compound concentration 1000.0 nM
Chain of Beta-adrenergic receptor kinase 1 (Homo sapiens) (P25098 whole entry): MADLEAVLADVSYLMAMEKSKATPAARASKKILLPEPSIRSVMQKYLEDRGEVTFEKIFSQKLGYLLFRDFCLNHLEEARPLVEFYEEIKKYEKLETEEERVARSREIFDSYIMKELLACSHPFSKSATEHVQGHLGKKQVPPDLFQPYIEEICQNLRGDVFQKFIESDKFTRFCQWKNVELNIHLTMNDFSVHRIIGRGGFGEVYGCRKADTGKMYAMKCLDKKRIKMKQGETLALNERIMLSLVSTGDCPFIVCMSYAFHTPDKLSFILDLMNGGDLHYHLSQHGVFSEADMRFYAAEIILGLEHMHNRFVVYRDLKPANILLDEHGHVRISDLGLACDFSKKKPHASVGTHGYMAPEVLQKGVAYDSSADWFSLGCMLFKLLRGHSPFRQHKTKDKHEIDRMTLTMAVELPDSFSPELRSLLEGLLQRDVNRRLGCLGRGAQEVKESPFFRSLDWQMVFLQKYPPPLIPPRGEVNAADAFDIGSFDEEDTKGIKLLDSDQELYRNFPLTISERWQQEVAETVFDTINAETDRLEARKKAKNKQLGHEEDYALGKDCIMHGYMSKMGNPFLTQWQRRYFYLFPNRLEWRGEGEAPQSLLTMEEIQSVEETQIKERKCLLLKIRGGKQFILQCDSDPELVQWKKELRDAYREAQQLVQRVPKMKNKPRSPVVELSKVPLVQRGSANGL

[16] = target: Serine/threonine-protein kinase MARK1 (Homo sapiens) (UniProt Q9P0L2); conditions: Compound concentration 1000.0 nM
[17] = target: Serine/threonine-protein kinase 38 (Homo sapiens) (UniProt Q15208); conditions: Compound concentration 1000.0 nM
Chain of Serine/threonine-protein kinase 38 (Homo sapiens) (Q15208 2-465 limits assumed): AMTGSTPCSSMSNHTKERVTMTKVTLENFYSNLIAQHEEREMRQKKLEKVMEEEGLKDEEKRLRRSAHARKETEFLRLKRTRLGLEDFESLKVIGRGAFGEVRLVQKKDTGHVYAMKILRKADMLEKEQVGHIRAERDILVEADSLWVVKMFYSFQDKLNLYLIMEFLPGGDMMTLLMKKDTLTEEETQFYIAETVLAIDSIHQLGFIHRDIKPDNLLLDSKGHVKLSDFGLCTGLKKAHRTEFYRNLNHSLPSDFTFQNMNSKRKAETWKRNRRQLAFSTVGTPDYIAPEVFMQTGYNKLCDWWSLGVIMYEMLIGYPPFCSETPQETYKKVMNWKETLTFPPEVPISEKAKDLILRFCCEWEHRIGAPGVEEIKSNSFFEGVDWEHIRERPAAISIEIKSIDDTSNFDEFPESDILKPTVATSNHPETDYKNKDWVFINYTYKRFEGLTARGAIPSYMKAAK

[18] = target: Serine/threonine-protein kinase Nek10 (Homo sapiens) (UniProt Q6ZWH5); conditions: Compound concentration 1000.0 nM
[19] = target: Serine/threonine-protein kinase Nek9 (Homo sapiens) (UniProt Q8TD19); conditions: Compound concentration 1000.0 nM
[20] = target: Serine/threonine-protein kinase NLK (Homo sapiens) (UniProt Q9UBE8); conditions: Compound concentration 1000.0 nM
Chain of Serine/threonine-protein kinase NLK (Homo sapiens) (Q9UBE8 whole entry, canonical isoform): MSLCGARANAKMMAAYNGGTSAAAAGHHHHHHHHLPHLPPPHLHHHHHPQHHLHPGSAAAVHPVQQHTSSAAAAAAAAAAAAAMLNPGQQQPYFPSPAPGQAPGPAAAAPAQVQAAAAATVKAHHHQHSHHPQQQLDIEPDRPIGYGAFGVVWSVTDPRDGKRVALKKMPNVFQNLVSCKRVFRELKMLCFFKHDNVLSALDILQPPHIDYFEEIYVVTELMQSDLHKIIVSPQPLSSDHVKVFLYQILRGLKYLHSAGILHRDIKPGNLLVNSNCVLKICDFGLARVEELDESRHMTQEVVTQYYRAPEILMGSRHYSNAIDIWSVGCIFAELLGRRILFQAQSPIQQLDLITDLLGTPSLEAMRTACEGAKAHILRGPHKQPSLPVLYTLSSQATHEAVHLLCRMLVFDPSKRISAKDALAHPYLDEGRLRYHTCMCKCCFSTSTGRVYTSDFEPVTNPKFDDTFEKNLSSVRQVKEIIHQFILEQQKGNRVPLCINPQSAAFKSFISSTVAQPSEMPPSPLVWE

[21] = tested on: Phosphatidylinositol 4,5-bisphosphate 3-kinase catalytic subunit alpha isoform (Homo sapiens), P42336 [E545K]; conditions: Compound concentration 1000.0 nM
[22] = target: Serine/threonine-protein kinase D1 (Homo sapiens) (UniProt Q15139); conditions: Compound concentration 1000.0 nM
[23] = target: Serine/threonine-protein kinase D3 (Homo sapiens) (UniProt O94806); conditions: Compound concentration 1000.0 nM
[24] = target: Protein-tyrosine kinase 2-beta (Homo sapiens) (UniProt Q14289); conditions: Compound concentration 1000.0 nM
[25] = target: Ribosomal protein S6 kinase alpha-2 (Homo sapiens) (UniProt Q15349); conditions: Compound concentration 1000.0 nM
[26] = target: Serine/threonine-protein kinase SBK1 (Homo sapiens) (UniProt Q52WX2); conditions: Compound concentration 1000.0 nM
[27] = target: Uncharacterized serine/threonine-protein kinase SBK3 (Homo sapiens) (UniProt P0C264); conditions: Compound concentration 1000.0 nM
Chain of Uncharacterized serine/threonine-protein kinase SBK3 (Homo sapiens) (P0C264 whole entry): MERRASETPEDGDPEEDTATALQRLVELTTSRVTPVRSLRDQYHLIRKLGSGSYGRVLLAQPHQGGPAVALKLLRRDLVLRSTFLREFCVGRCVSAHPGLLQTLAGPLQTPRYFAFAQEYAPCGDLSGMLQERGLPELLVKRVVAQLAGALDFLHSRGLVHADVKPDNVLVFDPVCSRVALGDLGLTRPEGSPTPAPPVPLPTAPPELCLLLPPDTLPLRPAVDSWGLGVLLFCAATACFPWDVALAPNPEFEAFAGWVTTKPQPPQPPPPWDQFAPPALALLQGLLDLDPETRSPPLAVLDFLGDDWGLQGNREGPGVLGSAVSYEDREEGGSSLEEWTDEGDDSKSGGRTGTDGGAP

[28] = target: Serine/threonine-protein kinase TAO3 (Homo sapiens) (UniProt Q9H2K8); conditions: Compound concentration 1000.0 nM
[29] = target: Tyrosine-protein kinase Tec (Homo sapiens) (UniProt P42680); conditions: Compound concentration 1000.0 nM
[30] = target: Non-receptor tyrosine-protein kinase TNK1 (Homo sapiens) (UniProt Q13470); conditions: Compound concentration 1000.0 nM
[31] = target: Beta-2 adrenergic receptor (Homo sapiens) (UniProt P07550); conditions: Compound concentration 10.0 uM
Chain of Beta-2 adrenergic receptor (Homo sapiens) (P07550 whole entry, looked up): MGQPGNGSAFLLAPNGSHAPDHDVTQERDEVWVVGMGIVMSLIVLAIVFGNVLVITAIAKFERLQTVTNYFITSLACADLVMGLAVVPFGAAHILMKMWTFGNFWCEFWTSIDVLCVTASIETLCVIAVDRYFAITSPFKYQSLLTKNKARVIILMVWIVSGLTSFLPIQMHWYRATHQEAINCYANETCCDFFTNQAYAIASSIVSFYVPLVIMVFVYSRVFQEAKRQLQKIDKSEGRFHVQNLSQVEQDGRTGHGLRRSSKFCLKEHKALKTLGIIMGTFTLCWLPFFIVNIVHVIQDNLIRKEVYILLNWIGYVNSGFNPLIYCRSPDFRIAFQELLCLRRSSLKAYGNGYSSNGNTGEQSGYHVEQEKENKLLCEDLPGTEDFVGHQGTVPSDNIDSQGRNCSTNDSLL

[32] = target: Muscarinic acetylcholine receptor M5 (Homo sapiens) (UniProt P08912); conditions: Compound concentration 10.0 uM
Chain of Muscarinic acetylcholine receptor M5 (Homo sapiens) (P08912 whole entry): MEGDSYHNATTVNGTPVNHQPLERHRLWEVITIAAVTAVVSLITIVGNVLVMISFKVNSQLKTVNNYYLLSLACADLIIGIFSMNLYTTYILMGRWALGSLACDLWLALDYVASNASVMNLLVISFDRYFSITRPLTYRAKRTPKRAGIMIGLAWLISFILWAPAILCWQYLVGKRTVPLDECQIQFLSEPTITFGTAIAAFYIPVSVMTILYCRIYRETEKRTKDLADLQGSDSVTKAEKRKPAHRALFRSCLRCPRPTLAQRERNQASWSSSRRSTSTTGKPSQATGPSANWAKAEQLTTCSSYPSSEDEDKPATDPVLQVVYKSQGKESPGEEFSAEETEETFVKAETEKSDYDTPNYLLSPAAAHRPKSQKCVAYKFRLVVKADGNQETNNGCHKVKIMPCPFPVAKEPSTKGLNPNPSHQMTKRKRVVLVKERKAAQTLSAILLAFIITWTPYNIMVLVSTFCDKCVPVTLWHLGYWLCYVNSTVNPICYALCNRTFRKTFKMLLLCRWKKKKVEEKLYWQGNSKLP

[33] = target: Sigma intracellular receptor 2 (Homo sapiens, UniProt Q5BJF2); conditions: Compound concentration 10.0 uM
Chain of Sigma intracellular receptor 2 (Q5BJF2 whole entry): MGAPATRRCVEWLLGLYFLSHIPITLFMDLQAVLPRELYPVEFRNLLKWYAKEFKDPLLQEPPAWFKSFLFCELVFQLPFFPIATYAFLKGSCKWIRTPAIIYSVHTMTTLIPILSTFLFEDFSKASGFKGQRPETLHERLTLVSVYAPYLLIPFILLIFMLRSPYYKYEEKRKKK

Chain of Histamine H2 receptor (Homo sapiens) (P25021 whole entry): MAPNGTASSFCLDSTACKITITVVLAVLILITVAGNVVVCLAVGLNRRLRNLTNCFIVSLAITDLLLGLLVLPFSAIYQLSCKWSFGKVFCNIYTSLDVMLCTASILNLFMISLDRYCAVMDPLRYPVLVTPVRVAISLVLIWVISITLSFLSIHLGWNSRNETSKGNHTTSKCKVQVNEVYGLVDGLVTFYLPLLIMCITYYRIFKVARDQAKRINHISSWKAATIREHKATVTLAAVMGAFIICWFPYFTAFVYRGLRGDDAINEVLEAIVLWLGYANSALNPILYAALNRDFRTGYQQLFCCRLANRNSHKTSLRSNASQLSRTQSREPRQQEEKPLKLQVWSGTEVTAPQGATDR

Compound	% Inhibition of Control Agonist Response (Mean n=2) [1] [%]	% of Control Agonist Response (Mean n=2) [1] [%]	% Inhibition of Control Agonist Response (Mean n=2) [2] [%]	% of Control Agonist Response (Mean n=2) [2] [%]	% Inhibition of Control Agonist Response (Mean n=2) [3] [%]	% of Control Agonist Response (Mean n=2) [3] [%]	residual activity [4] [%]	residual activity [5] [%]	residual activity [6] [%]	residual activity [7] [%]	residual activity [8] [%]	residual activity [9] [%]	residual activity [10] [%]	residual activity [11] [%]	residual activity [12] [%]	residual activity [13] [%]	residual activity [14] [%]	residual activity [15] [%]	residual activity [16] [%]	residual activity [17] [%]	also measured
O=C(N1CCS(=O)(=O)CC1)N1C[C@H](c2ccc(OC(F)(F)F)cc2)C[C@H](c2nc(C3CC3)no2)C1 [BAY-386]	9.6	-0.7	25.6	-0.2	21.1	2.8	99	100	100	100	0	93	77	100	96	100	100	66	100	100	residual activity [18]: 81%; residual activity [19]: 100%; residual activity [20]: 100%; residual activity [21]: 90%; residual activity [22]: 100%; residual activity [23]: 100%; residual activity [24]: 99%; residual activity [25]: 100%; residual activity [26]: 90%; residual activity [27]: 98%; residual activity [28]: 100%; residual activity [29]: 100%; residual activity [30]: 100%; inhibition [31]: 11.8%; inhibition [32]: 4.1%; inhibition [33]: 67.7%
Cc1noc([C@H]2C[C@@H](c3ccc(C(F)(F)F)cc3)CN(C(=O)N3CCS(=O)(=O)C3)C2)n1 [BAY-448]	-2.8	2.6	-23	1.1	2.1	1.4	100	100	100	100	100	76	83	100	100	100	89	83	91	100	residual activity [18]: 84%; residual activity [19]: 100%; residual activity [20]: 70%; residual activity [21]: 65%; residual activity [22]: 100%; residual activity [23]: 100%; residual activity [24]: 100%; residual activity [25]: 92%; residual activity [26]: 100%; residual activity [27]: 84%; residual activity [28]: 100%; residual activity [29]: 100%; residual activity [30]: 100%; inhibition [31]: 24%; inhibition [32]: -1.71%; inhibition [33]: 42.4%

Source: ChEMBL document CHEMBL4507269, “Data for DCP probe BAY-386” (2021)
